Data on nine molecules can be found in PubChem BioAssay (NCI).

Values joined by “and” are separate entries in the source; they are usually repeats but may differ in a detail not shown here. Equal entries are not always repeated.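 Tested at 5 concentrations; 48 h exposure; 96-well plates; endpoints linearly interpolated, else capped at highest concentration. The concentration for 50% growth inhibition is given as GI50. TGI marks complete inhibition of growth.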

Assay in all cases: NCI anticancer screen, dose series, 48 h
Assay [1] concerns HCT-116 colon.
In assay [2] the test system is KM12 colon.
The test system of assay [3] is PC-3 prostate.
Assay [4] relates to SK-MEL-28 melanoma.
Assay [5] has as its system SN12C renal.
In assay [6] the test system is SR leukemia.
The subject of assay [7] is TK-10 renal.
The test system of assay [8] is U251 CNS.
For assay [9], the system named is UACC-62 melanoma.
Assay [10] deals with HOP-92 NSCLC.

In the case of `CC1(C)N=C(N)N=C(N)N1c1ccc(OCC(=O)Nc2ccc(S(=O)(=O)F)cc2Cl)c(Cl)c1`, the GI50 in assay [1] was 2.7 µM; in [2], 4.63 µM; in assay [3] it was 0.65 µM; in assay [4], 37.6 µM; in assay [5], 4.41 µM; in assay [6], 0.82 µM. For the same molecule, the values for the GI50 in [7], in assay [8] and in assay [9] were 15.4 µM, 5.73 µM and 1.16 µM, respectively. For the same molecule, the TGI in [1], in assay [2], in assay [3], in [4], in [5] and in assay [6] was greater than 100 µM each time. In addition, the TGI in assay [7], in [8] and in [9] was greater than 100 µM each time.

Turning to `CN1C(=O)C(N=Nc2ccc([N+](=O)[O-])cc2)SC1=S` (stereo unspecified), the GI50 in assay [1] is 3.65 µM and 6.79 µM; in assay [10], 1.71 µM; in assay [2], 1.81 µM and 2.53 µM; in [3] it was 1.6 µM and 4.65 µM; in assay [4] it was 11.6 µM and 27.2 µM; in assay [5], 4.39 µM and 9.34 µM. The GI50 in [6] is 2.66 µM and 4.47 µM; in assay [7] it was 12.6 µM and 5.87 µM; in assay [8], 3.3 µM and 7.63 µM; in [9] it was 3.29 µM and 2.85 µM. Besides, the TGI was 29 µM and 66.3 µM in assay [1]; 12.3 µM in [10]; 17.4 µM and > 100 µM in assay [2]; greater than 100 µM in assay [3]; greater than 100 µM in [4]; > 100 µM and 75.9 µM in assay [5]. Also, the TGI in [6] was greater than 100 µM; in assay [7] it was 79.7 µM and > 100 µM; in assay [8], 70.8 µM and > 100 µM; in assay [9], greater than 100 µM.

Regarding `CNC(=O)/C=C/C1=CN2C(=O)c3ccc(C)c(O)c3NC(OC)C2C1` (stereo unspecified), the TGI is greater than 4.64 µM in assay [1]; less than 0.0183 µM in assay [2]; 0.447 µM in assay [3]; less than 0.0131 µM in assay [4]; 12.1 µM in assay [5]; 0.0598 µM in assay [6]. Also, the TGI was 1.67 µM in assay [8] and less than 0.0154 µM in assay [9].

Consider `CC1(C)CC[C@]23CC[C@]4(C)[C@H](CC[C@@H]5[C@@]6(C)CCCNC(C)(C)[C@@H]6CC[C@]54C)[C@H]2[C@H]1OC3`, for which the GI50 in assay [1] was 1.52 µM; in assay [3], 1.61 µM; in [4], 1.66 µM; in assay [5], 1.68 µM; in [6], 1.49 µM; in [7] it was 1.89 µM. Besides, the values for the GI50 in [8] and in assay [9] were 1.74 µM and 1.79 µM, respectively. Moreover, the TGI in assay [1] worked out at 2.88 µM; in [3], 3.17 µM; in assay [4], 3.18 µM; in [5], 3.2 µM; in [6] it was 4.12 µM; in [7], 3.61 µM. Further, the TGI in assay [8] is 3.23 µM; in [9], 3.21 µM.

As for `CCOC(=O)c1c(C)n([O-])c2cc(F)c(F)cc2[n+]1=O`, the GI50 in assay [1] was 0.351 µM; in assay [10], 1.1 µM; in [2], 15.4 µM; in [3], 1.65 µM; in [4], 1.24 µM; in assay [5], 1.01 µM. Besides, the GI50 in assay [6] was 0.0482 µM; in assay [7], 17.4 µM; in assay [8], 1.51 µM; in assay [9], 1.47 µM. Besides, the TGI was found to be 1.28 µM in assay [1]; 3.08 µM in assay [10]; 35.6 µM in [2]; 3.59 µM in assay [3]; 2.58 µM in [4]; 2.18 µM in assay [5]. Besides, the TGI in assay [6] was greater than 100 µM; in assay [7], 32.5 µM; in [8] it was 3.04 µM; in [9], 2.91 µM.

On to `Cc1cc(S(=O)(=O)Nc2nc3ccccc3c(=O)n2Cc2ccco2)c(S)cc1Cl`, for which the GI50 was 42.3 µM in assay [1]; greater than 100 µM in assay [10]; 30.1 µM in assay [2]; 36.9 µM in assay [3]; 34.8 µM in assay [4]; 29.8 µM in assay [5]. Moreover, the GI50 in assay [6] was 19.5 µM; in assay [7], 35 µM; in assay [8], 45.8 µM; in assay [9] it was 36.4 µM. Moreover, the TGI was greater than 100 µM in assay [1]; greater than 100 µM in [10]; greater than 100 µM in assay [2]; greater than 100 µM in assay [3]; greater than 100 µM in assay [4]; 88.8 µM in [5]. In addition, the TGI was 40.7 µM in assay [6], greater than 100 µM in [7], greater than 100 µM in [8] and greater than 100 µM in assay [9].

For the molecule `CCOC(=O)c1c(-c2ccccc2)n2c(=O)cc(C)c3c(O)c(O)cc1c32`, the GI50 was 2.8 µM in [1]; 10.5 µM in [10]; 6.74 µM in [2]; 6.94 µM in assay [3]; 12.7 µM in [4]; 10.8 µM in assay [5]. In addition, the GI50 is 3.59 µM in [6], 22.7 µM in assay [7], 4.98 µM in assay [8] and 7.94 µM in assay [9]. In addition, the TGI in assay [1] came out at 11.9 µM; in [10], 42.8 µM; in assay [2], 38.7 µM; in assay [3], 26 µM; in assay [4], 29.3 µM; in assay [5] it was 35.1 µM. The TGI is 17.5 µM in assay [6], greater than 100 µM in assay [7], 22.7 µM in assay [8] and 20.9 µM in assay [9].

Take `O=C(O)CN1C(=O)OC(c2ccccc2)C1=O` (stereo unspecified): the TGI in [1], in [10], in assay [2], in assay [3], in [4] and in [5] was greater than 100 µM throughout. Also, the TGI in assay [6], in assay [7], in [8] and in [9] was greater than 100 µM each time.

Turning to `O=C1CCc2cc(Br)ccc2O1`, the TGI in assay [1], in assay [10], in assay [3], in assay [4], in assay [5] and in [6] was greater than 100 µM each time. Also, the TGI in assay [7], in assay [8] and in assay [9] was greater than 100 µM each time.
